Literature values in patent publication US20050074468A1, “Topical compositions containing nonimmunosuppressive cyclosporin derivatives for treating hair loss” (priority 2001, published 2005).

Test system: mouse's back
Conditions: relative to minoxidil

## Cyclosporin A
  hair regrowth effect superior to minoxidil: about 100 times
